The conditions of data set [1]: cited from earlier work.
For data set [2] the following is noted: human, in vivo.
Procedure: (§6) Pharmacokinetic/pharmacodynamic analysis was conducted in BRAF^V600-mutated MM patients concomitantly treated with CombiDT. Regarding safety, the onset of DLT was considered as the clinical endpoint. A DLT was defined as any toxicity leading to dose reduction or temporary or permanent discontinuation of treatment. Regarding survival, the primary end point was progression free survival (PFS), the time from DAB and TRA treatment initiation to documented progression event (either clinical or radiological progression) or death from any cause. The secondary end-point was overall survival (OS), defined as the time from DAB and TRA treatment initiation to death from any cause. Radiographic evidence of progression was defined according to modified Response Evaluation Criteria in Solid Tumor (RECIST) v1.1 [41].
(§7) Systemic exposures to DAB, OHD, and TRA (AUCDAB, AUCOHD, and AUCTRA, respectively) were calculated with classic equations, composite DAB and OHD AUC (AUCDAB+OHD) as previously explained and AUCOHD/DAB as the ratio of AUCOHD over AUCDAB. Univariate Fisher and Wilcoxon models were performed to identify which parameters could contribute to the onset of DLT. The following variables were tested: sex, age at treatment initiation, BMI, Eastern Cooperative Oncology Group Performance Status (ECOG PS: grade 0-1 vs ≥2), lactate dehydrogenase (LDH) level (<1.5N vs. ≥1.5N), AUCDAB, AUDOHD, AUCDAB+OHD, and AUCTRA.
(§8) Multivariate Cox models according to a stepwise procedure were tested including all variables which were significant at 5% level in the univariate analyses. All the pharmacokinetic/pharmacodynamic analyses were performed using R program v3.6.1 with RStudio v1.1.383 (http://www.r-project.org).
For data set [3], the system named is mutant BRAF. Further details: method as in PMID 24958809. To be noted: in vitro study; cited from earlier work.
Data set [4] in a line: Population pharmacokinetic model of dabrafenib/hydroxy-dabrafenib (NONMEM) from plasma concentrations. Format: in vivo, human (patients). The source says: (§1) Seventy-three outpatients treated with DAB were enrolled from July 2015 to June 2017 in this observational multicentric study including three hospitals of the Assistance Publique—Hôpitaux de Paris (Cochin, Henri Mondor, and Avicenne). To be eligible, patients needed to meet the following criteria: a minimal age of 18 years, metastatic BRAF^V600-mutated solid tumors, treatment with DAB or CombiDT with at least one available DAB concentration measurement.
(§2) DAB, dabrafenib-d9 (internal standard, IS), and TRA were purchased from LGC Standards (Molsheim, France). A custom synthesis was developed by Shanghai Medicilon (Shanghai, China) for OHD. The plasma concentrations were assayed using a validated high-performance liquid chromatography-tandem mass spectrometry (HPLC-MS/MS) (ATSQ Quantum Ultra®mass spectrometer, ThermoFisher, Les Ulis, France). Chromatographic separation was performed on Accucore® C18 (2.1 × 50 mm; 2.6 µm) analytical column (ThermoFisher Scientific, Les Ulis, France) associated with a guard column packed with the same bonded phase. Two hundred microliters (µL) aliquot of plasma (calibration standard, internal quality control or patient sample) was mixed with 20 µL of IS solution. Then 600 µL acetonitrile with 1% (v/v) formic acid was added. Samples were mixed and centrifuged, and the supernatant was evaporated and recovered with 200 µL of mobile phase: water/methanol (70:30%, v/v) with formic acid (0.1% v/v). Ten microliters of this mixture were injected into the HPLC-MS/MS system. The calibration standards ranged from 10 to 2000 ng/mL for DAB and OHD and from 5 to 50 ng/mL for TRA.
(§3) Blood samples were collected in heparinized tubes during the treatment course, and the exact sample time was recorded. Plasma was separated by centrifugation (3000 rpm, 5 min), and stored at −20 °C until analysis.
(§4) The non-linear mixed effects modeling program NONMEM v7.4.1 [34] with the Perl-Speaks NONMEM (PsN) Toolkit v4.8.0 [35] was used to build DAB/OHD and TRA models. Pirana v2.9.2 was used to assist in model development. […] Molar units were used for DAB/OHD analyses. Plasma samples with concentrations below the lower limit of quantification of the assay, non-reliable time information about blood sampling, or without dose information were excluded from the analysis.
(§5) A stepwise strategy was used to identify the base models that best fitted DAB/OHD and TRA pharmacokinetic data. Different structural models such as one or two compartments, with linear absorption with or without lag time, were compared. DAB and OHD were modeled simultaneously testing multi-compartment models for both compounds. We hypothesized that DAB was cleared by complete oxidation to OHD, since it is not eliminated as unchanged molecule in urine and accounts for less than 22% in feces. Moreover, the first-order absorption rate constant (ka) of DAB was fixed to 1.8 h^−1 according to a previously published value to allow an adequate estimate of all pharmacokinetic parameters. Since DAB and TRA are administered orally, the pharmacokinetic parameters represent apparent values. Exponential errors following a log-normal distribution were assumed for the description of IIV of all the pharmacokinetic parameters. Inter-occasion variability (IOV) was tested in both DAB/OHD and TRA models to assess differences in individual parameters across study occasions. Additive, proportional, and mixed error models were compared to depict the residual unexplained variability (RUV) for both drugs and metabolite. The correlation between DAB and OHD data was tested using the L2 item in NONMEM. […]

Data set [5] is described as follows: Model-estimated systemic exposure (AUC) in BRAF^V600-mutated MM patients treated with CombiDT. To be noted: for AUC: human, plasma, oral.
Procedure: as §6, §7, §8
On the set-up of data set [6]: method as in earlier work. To be noted: preclinical data; cited from earlier work.
For data set [7], the system named is BRAF^V600-mutated metastatic melanoma. As to the kind of experiment: Survival (PFS, OS) and Cox exposure-survival analysis under CombiDT. To be noted: for Risk of Death, HR (CI95%) for AUCM3 / Risk of Progression, HR (CI95%) for AUCM3: n = 30. Format: in vivo, human (patients).
Procedure: as §6
Multivariate Cox models according to a stepwise procedure were tested including all variables which were significant at 5% level in the univariate analyses.
The test system of data set [8] is BRAF^V600-mutated MM patients. The data set is described as follows: Safety: adverse events and dose-limiting toxicities (DLT) under CombiDT. The note with it: human, in vivo. As to the method: Patients initiated DAB at the recommended daily dose of 150 mg twice daily. In patients treated with CombiDT, TRA was started at 2 mg once daily. Reduced starting doses were allowed at physician discretion based on comorbidities and patients’ general condition. All AE were graded using the National Cancer Institute Common Toxicity Criteria v4.0. DAB treatment was continued until disease progression, unacceptable toxicity, or unfitness to receive it.

Data set [9] is described as follows: Population pharmacokinetic model of trametinib (NONMEM) from plasma concentrations. To be noted: for Vd/F: human, plasma, oral, read-out: V2/F, apparent central volume of distribution of TRA. Format: in vivo, human (patients).
From the text: as §1, §2, §3, §4, §5

Where [10] appears, read: bootstrap median (n = 500 samples).
Setting [11] is: multivariate Cox model with ECOG PS ≥2.

Entries after “also recorded” stand apart in the source; their conditions may differ. Like-named read-outs stand apart in the source and are kept apart here.

As usually defined, the AUC is the area under the concentration-time curve, a measure of exposure.

`CC(C)(CO)c1nc(-c2cccc(NS(=O)(=O)c3c(F)cccc3F)c2F)c(-c2ccnc(N)n2)s1` [OHD, hydroxy-dabrafenib]: in data set [1], the “mean OHD-to-DAB exposure ratio in plasma” value is 0.8. In addition, the “median AUCOHD/AUCDAB ratio” value in [2] is 0.80 (0.50–1.32). For the same compound, the “potency as an inhibitor of mutant BRAF compared to DAB” value in [3] is listed as “two-fold higher pharmacological potency; also recorded: twofold higher potency”. Also, the difference in pharmacokinetics result in data set [4] (DAB monotherapy vs. combiDT (ΔOFV = −2.9, p > 0.05)) was “did not differ”. Moreover, in data set [4] (base DAB/OHD model), the “CLm/F, apparent clearance of OHD” value was determined as 22.8 L/h; the “IIV CLm/F, interindividual variability (coefficient of variation)” value (“IIV CLm/F, interindividual variability” for short) is recorded as 26.8%; the “IIV V3/F, interindividual variability (coefficient of variation)” value (“IIV V3/F, interindividual variability” for short) turned out to be 84.0%; the “RUV of OHD, residual unexplained variability (proportional)” value is given as 53.1%. For the same compound, in data set [4] (setting [10]), the “CLm/F, apparent clearance of OHD” value came to 22.9 L/h; the “IIV CLm/F, interindividual variability” value is 21.8%; the “IIV V3/F, interindividual variability” value is 82.0%; the “RUV of OHD, residual unexplained variability (proportional)” value is listed as 52.7%. In addition, the “θage/(CLm/F), Age effect on CLm/F” value in [4] (setting [10]) is listed as −0.543. The difference in pharmacokinetics entry in [4] (concomitant proton-pump inhibitor (PPI) intake (ΔOFV = −3.5, p > 0.05)) was “did not differ”. Besides, in data set [4] (final DAB/OHD model), the “CLm/F, apparent clearance of OHD” value is 23.2 L/h; the “IIV CLm/F, interindividual variability” value amounted to 24.0%; the “IIV V3/F, interindividual variability” value came out at 47.5%; the “RUV of OHD, residual unexplained variability (proportional)” value was found to be 53.1%. Moreover, the “θage/(CLm/F), Age effect on CLm/F” value in data set [4] (final DAB/OHD model, median age 61.2 years) is −0.589. The “base model variance of clearance explained by covariates (sex, age)” value in [4] (in vivo) is listed as 20%. Further, the “decrease in CLm/F” value in [4] (same age variation (20 to 90 years)) is given as 51%. In addition, the “median AUCM3 (mean AUC during the first three months of treatment)” value in [5] (30 MM patients of the exposure-survival analysis) is 6082 ng·h/mL. The “AUCM3,OHD/AUCM3,DAB ratio” value in data set [5] (patients experiencing cerebral progression) is given as 0.9 (0.5–1.3). For the same compound, in [5] (patients with DAB-related DLT (n = 12), last AUC before onset of DLT), the “AUC, median (range)” value is recorded as 7509.5 (4918–10300) ng∙h/mL. Further, in data set [5] (patients with extra-cerebral progression), the “AUCM3,OHD/AUCM3,DAB ratio” value was 0.8 (0.6–0.8). Moreover, in data set [5] (patients without DAB-related DLT (n = 40), average AUC over treatment course), the “AUC, median (range)” value is recorded as 5812 (2459–10300) ng∙h/mL. Moreover, the “passage of the intact blood brain barrier” value in [6] is reported as “lack of OHD diffusion into the brain”. In addition, in data set [7] (setting [11]), the “Risk of Death, HR (CI95%) for AUCM3,OHD” value is given as 1.61 (1.07–2.45) and the “Risk of Death, HR (CI95%) for AUCM3,OHD/DAB ratio ≥ 1” value is 10.61 (2.34–48.15). For the same compound, the “Risk of Progression, HR (CI95%) for AUCM3,OHD” value in [7] (multivariate Cox model with cerebral metastases) is listed as 1.29 (0.99–1.68). In addition, the “Risk of Progression, HR (CI95%) for AUCM3,OHD” value in [7] (multivariate Cox model with number of metastasis site ≥3) is on record as 1.27 (0.97–1.68). Besides, in data set [7] (univariate Cox model), the “Risk of Death, HR (CI95%) for AUCM3,OHD/AUCM3,DAB ratio ≥ 1 vs. < 1” value is reported as 4.11 (1.18–14.29); the “Risk of Progression, HR (CI95%) for AUCM3,OHD/AUCM3,DAB ratio ≥ 1 vs. < 1” value is on record as 1.66 (0.62–4.46); the “Risk of Death, HR (CI95%) for AUCM3” value is on record as 1.64 (1.09–2.48); the “Risk of Progression, HR (CI95%) for AUCM3” value is 1.37 (1.02–1.83).
As for `CC(=O)Nc1cccc(-n2c(=O)n(C3CC3)c(=O)c3c(Nc4ccc(I)cc4F)n(C)c(=O)c(C)c32)c1` [TRA, trametinib], in data set [8], the “median time to onset of drug-related DLT” value turned out to be 104 days, the “patients in whom the drug dose was reduced” value is on record as 23%, the “patients in whom the drug was discontinued permanently” value turned out to be 10% and the “patients who experienced a drug-related DLT” value is listed as 33%. Also, in data set [5] (AUCTRA, median (range), patients with TRA-related DLT (n = 17), last AUC before onset of DLT), the AUC is 268 ng·h/mL. In addition, the area under the curve (AUC) in data set [5] (AUCTRA, median (range), patients without TRA-related DLT (n = 35), average AUC over treatment course) was 268 ng·h/mL. In data set [5] (median AUCM3 (mean AUC during the first three months of treatment), 30 MM patients of the exposure-survival analysis), the AUC was 292 ng·h/mL. In addition, in [9] (setting [10]), the “CL/F, apparent clearance of TRA” value was 5.82 L/h; the “IIV CL/F, interindividual variability (coefficient of variation)” value was determined as 28.6%; the “IIV Q, interindividual variability (coefficient of variation)” value amounted to 80.1%; the “RUV, residual unexplained variability (additive error)” value is recorded as 4.10 ng/mL. In data set [9] (setting [10]), the “Tlag, lag time” value is given as 0.728 h; the “ka, first order absorption rate constant” value came to 1.04 h⁻¹; the Vd/F amounted to 65.1 L. Besides, in data set [9] (final TRA model), the “IIV CL/F, interindividual variability (coefficient of variation)” value is 29.6%; the “IIV Q, interindividual variability (coefficient of variation)” value was 80.2%; the “RUV, residual unexplained variability (additive error)” value worked out at 4.14 ng/mL; the “Tlag, lag time” value is reported as 0.709 h. For the same compound, in [9] (final TRA model), the “ka, first order absorption rate constant” value was found to be 0.913 h⁻¹ and the Vd/F turned out to be 61.9 L. In data set [9] (final TRA model, n = 60), the “CL/F, apparent clearance of TRA” value came to 5.83 L/h. In addition, in [7] (univariate Cox model), the “Risk of Death, HR (CI95%) for AUCM3” value is on record as 1.37 (0.94–1.98) and the “Risk of Progression, HR (CI95%) for AUCM3” value is listed as 1.31 (0.93–1.83).
As to `CC(C)c1nc(-c2cccc(NS(=O)(=O)c3c(F)cccc3F)c2F)c(-c2ccnc(N)n2)s1` [desmethyl-dabrafenib], the “passage of the intact blood brain barrier” value in data set [6] was “may cross intact blood brain barrier”.

The record behind these values is PMC7226106, “Population Pharmacokinetics/Pharmacodynamics of Dabrafenib Plus Trametinib in Patients with BRAF-Mutated Metastatic Melanoma” (Cancers, 2020).
